Assay results as given in patent publication US12214036B2, “Combination therapy comprising AXL/MER and PD-1/PD-L1 inhibitors” (Incyte Corporation, priority 2020, dated 2025).
“Also recorded” adds a separate entry of the source.

Tested on: human PBMCs co-cultured with H1299 cells
Test: H1299 / PBMC co-culture cytokine assay
Assay type: cell-based
Conditions: 4 days, stimulated PBMCs + H1299, FIG. 6
Procedure: The ability of Compound 1 to cooperate with checkpoint blockade to further boost antitumor responses was evaluated. H1299 lung cancer cells were co-cultured with stimulated human PBMCs treated with Compound 1, anti-human programmed cell death (PD)-1 antibody retifanlimab or the combination, and production of proinflammatory cytokines was assessed in two different experiments (FIG. 6).
H1299 cells were co-cultured with human PBMCs, each at 4 or 16×10^4 cells/mL in RPMI containing 10% FBS, 100 U/mL of penicillin-streptomycin (ThermoFisher Scientific; #15140-122) and 1× beta-mercaptoethanol (ThermoFisher Scientific; #21985-023). Compound 1 or retifanlimab were added as single agents or in combination to the cells. Anti-CD3 (BD Biosciences #555336), anti-CD28 (BD Biosciences #555725) or SEA (Toxin Technology, Sarasota, Fla.; #AT101red) were added at a final concentration of 1 μg/mL, 0.5 μg/mL or 100 ng/mL, respectively, to stimulate cell growth. Cultures were incubated at 37° C. in 5% CO2 incubator for 4 days. The supernatant was collected for cytokine analysis using a multiplex assay system (custom human ProcartaPlex Luminex kit, ThermoFisher Scientific; #PPX-15-MXRWE6P).

“retifanlimab: humanized, IgG4 monoclonal antibody that binds to human PD-1; heavy chain SEQ ID NO:2, light chain SEQ ID NO:3” was tested, and the proinflammatory cytokine production was “induced these cytokines in a subset of donors; also recorded: induction of proinflammatory cytokines”.
